Data taken from patent publication EP0713876A1, “Triazine derivative, chymase activity inhibitor and nitric oxide production inhibitor” (Wakamoto Pharmaceutical Co., Ltd., priority 1994, dated 1996).
Marks after values point to notes of the source that are not given here.

Each molecule was assayed against T1, rat mast cell chymase (Rattus norvegicus, UniProt P09650) (assay: Inhibition of chymase activity (chromogenic substrate N-Suc-Ala-Ala-Pro-Phe-p-nitroanilide)). Details: 10⁻⁵ M test compound.
T1 construct: Chymase was partially purified from rat peritoneal cavity mast cells; from tissue; host or cells: peritoneal cavity mast cells of male Sprague Dawley rats
T1 sequence (P09650 21-260): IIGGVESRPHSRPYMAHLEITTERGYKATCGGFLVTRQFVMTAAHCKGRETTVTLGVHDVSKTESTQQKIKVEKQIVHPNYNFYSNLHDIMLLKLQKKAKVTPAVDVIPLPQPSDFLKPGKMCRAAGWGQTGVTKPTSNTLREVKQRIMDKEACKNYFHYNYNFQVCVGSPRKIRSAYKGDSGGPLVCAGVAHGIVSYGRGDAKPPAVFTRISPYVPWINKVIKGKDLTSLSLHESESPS
Type: biochemical
Procedure: Mast cells were obtained from the peritoneal cavity of male Sprague Dawley(SD) rats by the method of Graziano et al. (Methods in Enzymol., 162, 501-514, 1988), layered on 75% Percoll (Pharmacia Biotech), and then purified to over 90% purity by centrifugation at 150xG for 15 min.
Chymase was partially purified from rat peritoneal cavity mast cells by the method of Kido et al. (Arch. Biochem. Biophys., 239, 436-443, 1985). Purified mast cells were quickly frozen and thawed several times and homogenized in a low ionic strength-buffer (pH6.5). The homogenate was centrifuged at 20,000xG for 20 min. The precipitate was re-homogenized in a high ionic strength-buffer (pH8.0) and cetrifuged at 20,000xG for 20 min. The supernatant was recovered and the enzyme was extracted. From the crude extract, chymase was partially purified by an Octyl-Sepharose CL-4B (Pharmacia Biotech) hydrophobic chromatography.
Ten microliters of test compounds in dimethyl sulfoxide (DMSO) were mixed with 250 µl of 60 mM Tris-HCl buffer (pH8.0) containing 0.2 M NaCl and 250 µl of 1 µg/ml chymase in buffer. The mixtures were pre-incubated for 5 min. at 37°C . After the addition of 500 µl of 0.6 mM chromogenic substrate, N-Suc-Ala-Ala-Pro-Phe-p-nitroanilide (Sigma), the reactions were carried out for 30 min. at 37 °C , and then stopped by the addition of 50 µl of 0.75 M acetic acid. The absorbances at 405nm were measured in a spectrophotometer, and the amount of p-nitroaniline released from the substrate was measured.
Calculations of the inhibition% of chymase by test compounds were carried out as below. Inhibition% = {1-(a-a' )/(b-b' ) } x 100 (%) [formula] a; the absorbance in presence of test compound. a'; the absorbance of non-reaction in presence of test compound. b; the absorbance in absence of test compound. b'; the absorbance of non-reaction in absence of test compound.
IC₅₀ values were expressed as the concentrations (M) of test compounds producing 50% inhibition.

Structure (SMILES) | Inhibition (%) of chymase at a concentration of 10⁻⁵ M
[O-][S+](Cc1ccc(C(F)(F)F)cc1)c1nnc(OCc2ccc(C(F)(F)F)cc2)c2nccn12 (stereo not drawn) [Example 42, 8-(4-trifluoromethylbenzyloxy)-5-(4-trifluoromethylbenzylsulfinyl)imidazo[1,2-d][1.2.4]triazine] | 11%*
CCOc1nnc([S+]([O-])CC)n2cnc(C)c12 (stereo not drawn) [Example 55, 1-ethoxy-4-ethylsulfinyl-8-methylimidazo[1,5-d][1.2.4]triazine] | 22% *
[O-][S+](CCCCl)c1nnc(OCCCCl)c2nccn12 (stereo not drawn) [Example 51, 8-(3-chloropropoxy)-5-(3-chloropropyl)sulfinylimidazo[1,2-d][1.2.4]triazine] | 50% *
CCOC(=O)COc1nnc([S+]([O-])CC(=O)OCC)n2ccnc12 (stereo not drawn) [Example 52, 8-ethoxycarbonylmethyloxy-5-ethoxycarbonylmeth ylsulfinylimidazo[1,2-d][1.2.4]triazine] | 39% *
CCOc1nnc([S+]([O-])CC)n2ccnc12 (stereo not drawn) [Example 46, 8-ethoxy-5-ethylsulfinylimidazo[1,2-d][1.2.4]triazine] | 5 % *
CCn1nc([S+]([O-])CC)n2cnc(C)c2c1=O (stereo not drawn) [Example 56, 2-ethyl-4-ethylsulfinyl-8-methylimidazo[1,5-d][1.2.4]triazine-1(2H)-one] | 8% *
CC(C)c1ccc(COc2nnc([S+]([O-])Cc3ccc(C(C)C)cc3)n3ccnc23)cc1 (stereo not drawn) [Example 38, 8-(4-isopropylbenzyloxy)-5-(4-isopropylbenzylsulfinyl) imidazo[1,2-d][1,2,4]triazine] | 41% *

What follows are molecules tested on mouse macrophage cell line, RAW264 (assay: Inhibition of LPS-induced nitric oxide (NO) production, nitrite by Griess reaction). Details: 10⁻⁵ M test compound, RAW264, 1 µg/ml LPS, 36hr.
Type: cell-based
Procedure: The mouse macrophage cell line, RAW264, obtained from the Riken Cell Bank, was cultured in RPMI-1640 medium without phenol red containing 10% inactivated fetal bovine serum and 100 µg/ml kanamycin at 37°C in 5% CO₂ in air. Cells were seeded into 96-well tissue culture plates (6x10⁴ cells/well) and allowed to adhere for 4 hr at 37 °C . To assess the effects of test compounds on induction of NO production, 100 µl of fresh culture medium containing them were added to the medium, followed by the additions of 1 µg/ml of LPS (E Coli 055, derived from B5 cell line, DIFCO Co.) to activate macrophage cells. At the same time, cultivation was conducted in the presence or absence of a test compound.
Since the measurement of NO is difficult due to the unstableness of NO, the nitrite ion (NO₂⁻) which is the oxidation product of NO was measured.
Productions of NO were assayed by measuring the concentrations of NO₂⁻ in culture medium by the Griess reaction by the method of Green et al. (Anal. Biochem., 126, 131-138, 1982). Nitrite accumulation in the cell culture medium was measured 36hr after LPS-stimulations. One hundred microliters of Griess reagents (1% sulfanylamide and 0.1% N-1-naphthylethylenediamine dichloride in 5% phosphoric acid) were added to 100 µl of cell culture medium at a room temperature. After 10 min, the optical densities at 550 nm (OD550) were measured by using a microplate reader.
In unstimulated RAW264 macrophages, NO₂⁻ production for 36 hr was not determined in the presence or absence of test compounds. Calculations of the inhibition% of NO production by the test compounds were carried out as depicted below. Inhibition% = (1-a/b)x100(%) [formula] a; the OD550 in presence of test compound b; the OD550 in absence of test compound IC₅₀ values were expressed as the concentrations (M) of test compounds producing 50% inhibition.

Structure (SMILES) | Inhibition (%) of NO production at the concentration of 10⁻⁵ M
[O-][S+](Cc1ccc(C(F)(F)F)cc1)c1nnc(OCc2ccc(C(F)(F)F)cc2)c2nccn12 (stereo not drawn) [Example 42, 8-(4-trifluoromethylbenzyloxy)-5-(4-trifluoromethylbenzylsulfinyl)imidazo[1,2-d][1.2.4]triazine] | 8 * %
Cc1ncn2c([S+]([O-])Cc3ccc(Cl)cc3)nnc(O)c12 (stereo not drawn) [Example 33, 4-(4-chlorobenzylsulfinyl)-1-hydroxy-8-methyl imidazo [1,5-d][1.2.4]triazine] | 4 * %
[O-][S+](Cc1ccc(Cl)cc1)c1nnc(OCc2ccc(Cl)cc2)c2nccn12 (stereo not drawn) [Example 35, 8-(4-chlorobenzyloxy)-5-(4-chlorobenzylsulfinyl)imidazo[1,2-d][1.2.4]triazine] | 20 * %
N#Cc1ccc(COc2nnc([S+]([O-])Cc3ccc(C#N)cc3)n3ccnc23)cc1 (stereo not drawn) [Example 41, 8-(4-cyanobenzyloxy)-5-(4-cyanobenzylsulfinyl)imidazo[1,2-d][1.2.4]triazine] | 49 * %
[O-][S+](Cc1cccc(Cl)c1)c1nnc(OCc2cccc(Cl)c2)c2nccn12 (stereo not drawn) [Example 40, 8-(3-chlorobenzyloxy)-5-(3-chlorobenzylsulfinyl)imidazo[1,2-d][1.2.4]triazine] | 32 * %
[O-][S+](Cc1ccc(Cl)cc1)c1nnc(OCc2ccc(Cl)cc2)c2cccn12 (stereo not drawn) [Example 36, 1-(4-chlorobenzyloxy)-4-(4-chlorobenzylsulfinyl)pyrrolo [1,2-d][1.2.4]triazine] | 31 * %

What follows are molecules tested on ICR mice (assay: Single-dose toxicity). Details: male ICR mice, p.o. 500 mg/kg single dose, observed for 14 days.
Type: in vivo
Procedure: Ten Male ICR mice (4-week-old) were housed in each group. Test compounds were suspended in 0.5% aqueous sodium methyl cellulose, and then administered p.o. at the dose of 500 mg/kg to mice. Animals were then observed for 14 days and the mortality rate was determined. […]

Structure (SMILES) | The number of death/ The number of animal
Cc1ncn2c([S+]([O-])Cc3ccc(Cl)cc3)nn(Cc3ccc(Cl)cc3)c(=O)c12 (stereo not drawn) [Example 54, 2-(4-chlorobenzyl)-4-(4-chlorobenzylsulfinyl)-8-methyl imidazo[1,5-d][1.2.4]triazine-1(2H)-one] | 0/10
[O-][S+](Cc1ccc(Cl)cc1)c1nnc(O)c2cccn12 (stereo not drawn) [Example 29, 4-(4-chlorobenzylsulfinyl)-1-hydroxypyrrolo[1,2-d][1.2.4]triazine] | 0/10
[O-][S+](Cc1ccc(Cl)cc1)c1nnc(OCc2ccc(Cl)cc2)c2nccn12 (stereo not drawn) [Example 35, 8-(4-chlorobenzyloxy)-5-(4-chlorobenzylsulfinyl)imidazo[1,2-d][1.2.4]triazine] | 0/10
Cc1ncn2c([S+]([O-])Cc3ccc(Cl)cc3)nnc(OCc3ccc(Cl)cc3)c12 (stereo not drawn) [Example 53, 1-(4-chlorobenzyloxy)-4-(4-chlorobenzylsulfinyl)-8-methylimidazo[1,5-d][1.2.4]triazine] | 0/10
[O-][S+](Cc1ccc(Cl)cc1)c1nnc(O)c2nccn12 (stereo not drawn) [Example 31, 5-(4-chlorobenzylsulfinyl)-8-hydroxyimidazo[1,2-d][1.2.4]triazine] | 0/10
